Test systems include SR leukemia; HT29 colon; M14 melanoma; OVCAR-5 ovarian; OVCAR-8 ovarian; HCT-15 colon; NCI-H522 lung; SK-MEL-28 melanoma; NCI/ADR-RES ovarian; NCI-H226 lung.
Holding throughout (experiment): NCI anticancer screen, dose series, 48 h

Where “and” joins values, the source holds several entries; their conditions need not be identical. Equal entries are not always repeated.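 How tested: cells in 96-well plates exposed to compound for 48 hours at five concentrations. GI50 marks 50% less growth. At the TGI there is no net growth.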 Bounds are passed on as bounds.

`COc1cc([C@@H]2c3cc4c(cc3[C@@H](O[C@@H]3O[C@@H]5CO[C@@H](c6cccs6)O[C@H]5[C@H](O)[C@H]3O)[C@H]3COC(=O)[C@H]23)OCO4)cc(OC)c1O`: the GI50 is 0.0101 µM in the experiment on SR leukemia; 0.614 µM with HT29 colon; 0.267 µM in the experiment with M14 melanoma; 1.56 µM in the experiment with OVCAR-5 ovarian; 0.34 µM in the experiment on OVCAR-8 ovarian; 0.208 µM in the experiment with NCI-H522 lung. Further, the GI50 in the experiment with SK-MEL-28 melanoma was 0.44 µM; with NCI/ADR-RES ovarian it was 19 µM; in the experiment on NCI-H226 lung, 0.152 µM. Also, the TGI with SR leukemia is 15 µM; in the experiment with HT29 colon, 3.66 µM; in the experiment on M14 melanoma, 2.95 µM; in the experiment with OVCAR-5 ovarian it was 8.27 µM; in the experiment on OVCAR-8 ovarian, 2.51 µM; with HCT-15 colon it was > 55.9 µM. In addition, the TGI in the experiment on NCI-H522 lung was 1.4 µM; with SK-MEL-28 melanoma, 2.9 µM; in the experiment with NCI/ADR-RES ovarian it was > 100 µM; in the experiment with NCI-H226 lung, 0.742 µM.
On to `N#Cc1c(NC(=O)CN2CCOCC2)sc2c1CCCC2`, for which the GI50 in the experiment on SR leukemia, in the experiment on HT29 colon, in the experiment with M14 melanoma, in the experiment with OVCAR-5 ovarian, in the experiment on OVCAR-8 ovarian and with HCT-15 colon was > 25 µM throughout. Besides, the GI50 in the experiment with NCI-H522 lung, with SK-MEL-28 melanoma, with NCI/ADR-RES ovarian and in the experiment with NCI-H226 lung was > 25 µM throughout. In addition, the TGI in the experiment on SR leukemia, in the experiment with HT29 colon, with M14 melanoma, in the experiment on OVCAR-5 ovarian, in the experiment with OVCAR-8 ovarian and with HCT-15 colon was > 25 µM each time. Also, the TGI with NCI-H522 lung, in the experiment on SK-MEL-28 melanoma, in the experiment with NCI/ADR-RES ovarian and in the experiment with NCI-H226 lung was > 25 µM throughout.
Turning to `N#Cc1c(-c2ccccc2)cc(-c2ccccc2)n(CCCCC(=O)NO)c1=O`, the GI50 was 1.32 µM with SR leukemia; 3.51 µM with HT29 colon; 2.76 µM with M14 melanoma; 2.6 µM in the experiment with OVCAR-5 ovarian; 2.16 µM with OVCAR-8 ovarian; 0.57 µM in the experiment with HCT-15 colon. In addition, the GI50 with NCI-H522 lung was 2.06 µM; in the experiment with SK-MEL-28 melanoma, 2.8 µM; with NCI/ADR-RES ovarian, 0.703 µM; with NCI-H226 lung, 3.98 µM. Further, the TGI with SR leukemia was 8.37 µM; in the experiment on HT29 colon it was 13.4 µM; with M14 melanoma it was 11.6 µM; with OVCAR-5 ovarian, 10.9 µM; in the experiment on OVCAR-8 ovarian it was 14 µM; in the experiment on HCT-15 colon, 13.6 µM. The TGI with NCI-H522 lung is 8.36 µM; in the experiment with SK-MEL-28 melanoma it was 10.4 µM; in the experiment on NCI/ADR-RES ovarian it was 3.18 µM; with NCI-H226 lung it was 19 µM.
In the case of `Nc1ccccc1NC(=O)c1ccc(CN2CCC/C(=C\c3cccc(Cl)c3)C2=O)cc1`, the GI50 is 0.156 µM in the experiment with SR leukemia; 0.144 µM in the experiment with HT29 colon; 0.0521 µM in the experiment with M14 melanoma; 0.45 µM with OVCAR-5 ovarian; 0.334 µM in the experiment with OVCAR-8 ovarian; 0.0419 µM with HCT-15 colon. For the same molecule, the GI50 was 0.225 µM in the experiment on NCI-H522 lung, 1.16 µM in the experiment with SK-MEL-28 melanoma, 0.198 µM in the experiment with NCI/ADR-RES ovarian and 2.01 µM with NCI-H226 lung. In addition, the TGI is > 100 µM in the experiment on SR leukemia; 1.89 µM in the experiment on HT29 colon; 13.7 µM in the experiment with M14 melanoma; > 100 µM in the experiment with OVCAR-5 ovarian; > 100 µM in the experiment with OVCAR-8 ovarian; > 100 µM in the experiment with HCT-15 colon. Besides, the TGI in the experiment with NCI-H522 lung turned out to be 1.06 µM; in the experiment on SK-MEL-28 melanoma, 58.9 µM; in the experiment on NCI/ADR-RES ovarian it was 6.09 µM; with NCI-H226 lung, 7.06 µM.
Turning to `CNc1ccc(-c2cc(=O)oc3ccc(Cl)cc23)cc1`, the GI50 in the experiment with SR leukemia is 0.0463 µM; with HT29 colon, 0.297 µM and 0.139 µM; with M14 melanoma, 0.0393 µM and 0.0313 µM; in the experiment on OVCAR-5 ovarian, 0.795 µM and 0.457 µM; in the experiment on OVCAR-8 ovarian, 0.601 µM and 0.197 µM; in the experiment with HCT-15 colon, 0.0421 µM. The GI50 with NCI-H522 lung was 0.03 µM; in the experiment on SK-MEL-28 melanoma, 2.08 µM; in the experiment with NCI/ADR-RES ovarian, 0.0371 µM and 0.0363 µM; with NCI-H226 lung it was 0.719 µM and 4.05 µM. Besides, the TGI was 0.496 µM with HT29 colon; > 100 µM with M14 melanoma; > 100 µM in the experiment with OVCAR-5 ovarian; > 100 µM in the experiment with OVCAR-8 ovarian; 0.311 µM in the experiment with NCI-H522 lung; > 100 µM in the experiment on SK-MEL-28 melanoma. The TGI in the experiment with NCI-H226 lung is > 100 µM.
Turning to `Oc1cc(O)c2c(=S)cc(-c3ccc(Cl)cc3)oc2c1`, the GI50 is 3.52 µM in the experiment with SR leukemia; 19.7 µM in the experiment with HT29 colon; 3.22 µM in the experiment on M14 melanoma; 11.1 µM with OVCAR-5 ovarian; 3.3 µM in the experiment with OVCAR-8 ovarian; 0.397 µM with HCT-15 colon. Further, the GI50 in the experiment on NCI-H522 lung was 2.29 µM; in the experiment on SK-MEL-28 melanoma, 4.15 µM; in the experiment with NCI/ADR-RES ovarian it was 2.8 µM; in the experiment on NCI-H226 lung, 4.97 µM. Further, the TGI in the experiment with SR leukemia came to 29.6 µM; with HT29 colon, 39.7 µM; with M14 melanoma, 14.8 µM; in the experiment with OVCAR-5 ovarian, 32.5 µM; with OVCAR-8 ovarian, 14.9 µM; in the experiment on HCT-15 colon it was 11.9 µM. Further, the TGI worked out at 7.25 µM in the experiment on NCI-H522 lung, 18.4 µM in the experiment on SK-MEL-28 melanoma, 10.7 µM in the experiment on NCI/ADR-RES ovarian and 32.5 µM with NCI-H226 lung.
As to `CCOC(=O)C1=C(C)NC(=O)NC1c1coc2cc(C)cc(C)c2c1=O` (centres undefined), the TGI in the experiment with SR leukemia is > 79.8 µM; with HT29 colon it was > 100 µM; in the experiment on M14 melanoma, > 100 µM; with OVCAR-5 ovarian it was > 100 µM; in the experiment with OVCAR-8 ovarian, > 100 µM; in the experiment on HCT-15 colon it was > 100 µM. Moreover, the TGI with NCI-H522 lung is 14.5 µM; in the experiment with SK-MEL-28 melanoma, > 100 µM; in the experiment with NCI/ADR-RES ovarian, > 100 µM; with NCI-H226 lung, > 100 µM.
In the case of `COc1ccc(/C=C/c2cc(N3CCOCC3)c3cc(F)c(F)cc3n2)cc1OC`, the GI50 with SR leukemia is 0.431 µM; in the experiment with M14 melanoma, 0.762 µM; with OVCAR-5 ovarian, 2.01 µM; in the experiment on OVCAR-8 ovarian it was 0.55 µM; with HCT-15 colon, 0.392 µM; in the experiment on NCI-H522 lung, 0.454 µM. Also, the GI50 in the experiment on SK-MEL-28 melanoma is 1.44 µM; in the experiment on NCI/ADR-RES ovarian, 0.432 µM; with NCI-H226 lung it was 1.1 µM. In addition, the TGI in the experiment on SR leukemia turned out to be 6.78 µM; in the experiment on M14 melanoma, 3.92 µM; in the experiment with OVCAR-5 ovarian, 11.9 µM; with OVCAR-8 ovarian, 3.23 µM; with HCT-15 colon, 12 µM; in the experiment with NCI-H522 lung, 2.72 µM. Further, the TGI in the experiment with SK-MEL-28 melanoma is 11.6 µM; with NCI/ADR-RES ovarian it was 3.03 µM; in the experiment on NCI-H226 lung it was 4.82 µM.

Values taken from PubChem BioAssay (NCI).
